Laboratory results reported in patent US20250361277A1, “PROTEASE-RESPONSIVE SURFACE-POTENTIAL-TUNABLE PEPTIDE CONSTRUCTS FOR SELECTIVE IMAGING AND ACCURATE INHIBITOR SCREENING” (The Regents of the University of California, priority 2024, published 2025).
Structures can show the parent of a compound that is named as a salt. Where two headings read alike, the source gives them in different places. No end group written: not given here.

How the values were obtained:
TMPRSS2 [1] = target: T1, TMPRSS2 (Homo sapiens, UniProt O15393); assay: TMPRSS2 inhibitor screening with EGTP in TMPRSS2-Vero cells (CLSM); set-up: effect of inhibitor on yellow fluorescence of EGTP: dose or concentration left out as unconfirmed; conditions: for effect of inhibitor on fluorescence intensity of EGTP: 100 nM inhibitor 1 h, 10 μM EGTP 1 h
T1 sequence (O15393 whole entry): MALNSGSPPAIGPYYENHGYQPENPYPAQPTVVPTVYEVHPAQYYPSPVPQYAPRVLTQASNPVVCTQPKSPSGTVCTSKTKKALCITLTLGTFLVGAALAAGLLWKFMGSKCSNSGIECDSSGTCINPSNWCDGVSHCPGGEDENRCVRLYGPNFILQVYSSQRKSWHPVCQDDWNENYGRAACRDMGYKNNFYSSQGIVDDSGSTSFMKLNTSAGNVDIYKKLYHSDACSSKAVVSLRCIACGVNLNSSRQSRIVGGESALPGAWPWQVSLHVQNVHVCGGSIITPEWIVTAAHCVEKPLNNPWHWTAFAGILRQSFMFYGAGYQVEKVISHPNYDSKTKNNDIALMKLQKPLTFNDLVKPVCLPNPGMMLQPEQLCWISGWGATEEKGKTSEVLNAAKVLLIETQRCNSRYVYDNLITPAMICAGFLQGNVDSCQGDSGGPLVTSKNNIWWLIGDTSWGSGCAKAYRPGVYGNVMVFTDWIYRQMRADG
Procedure: (§5) To further screen TMPRSS2 inhibitors with EGTP, Vero cells and TMPRSS2-Vero cells as robust cell models were chosen for cell imaging (FIG. 4a). Vero cells and TMPRSS2-Vero cells were incubated with different concentrations (1 mM, 5 mM, 10 mM, and 20 mM) of PyTPE and EGTP (Figures S23, S24, S25, and S26).
(§6) Incubation living cells with probes. For confocal laser scanning microscopy imaging, A549 cells, HeLa cells, MCF-7-GFP cells, Vero cells, and TMPRSS2-Vero cells were seeded into cell culture dishes at a density of 2.0×10^5 in growth medium (DMEM supplemented with 10% FBS, 200 mL). After overnight incubation, the cells were washed with phosphate-buffered saline (PBS, pH 7.4) three times. A solution of the indicated probe in PBS was then added, and the cells were incubated in a 5% CO2 atmosphere at 37° C. for further use. […] The supernatant was then discarded, and the cells were washed gently twice with PBS and fixed with 2% paraformaldehyde (PFA) at room temperature for 20 min prior to optical imaging.
(§7) Confocal laser scanning microscopy. […] A 405 nm laser was chosen for the excitation of AIEgens and the emission was collected at 550-620 nm. A 488 nm laser was chosen for the excitation of GFP (or MTG), the emission was collected at 500-530 nm. […] All fluorescence images were analyzed with an IMAGE™ software (Zeiss).

TMPRSS2 [2] = target: T1, TMPRSS2; assay: Impact of protease inhibitors on EGTP fluorescence with TMPRSS2 in buffer; type: biochemical; set-up: expressed in transfected cells; host or cells: TMPRSS2-Vero cells
[3] = tested on: A549 cells, HeLa cells, and MCF-7-GFP cells
Procedure: (§1) The TMPRSS2 selective imaging capability of EGTP was tested via the three different cell lines.
Cytotoxicity assay. […] The fluorescence of Resazurin solution at 690 nm using an excitation wavelength of 560 nm was recorded by a SYNERGY H1™ microplate reader (BioTek) with standard operation procedures.

[4] = tested on: SARS-CoV-2 infected TMPRSS2-Vero cells; assay: SARS-CoV-2 infected TMPRSS2-Vero cells with PSGMR and Mpro inhibitor GC376 (CLSM); type: cell-based, SARS-CoV-2 (USA-WA1/2020)
[5] = target: Recombinant SARS-CoV-2 Mpro (Severe acute respiratory syndrome coronavirus 2, UniProt P0DTD1)
[6] = tested on: SARS-CoV-2 infected TMPRSS2-Vero cells; type: cell-based, SARS-CoV-2 (USA-WA1/2020)
Recombinant Mpro = Recombinant Mpro (Severe acute respiratory syndrome coronavirus 2, UniProt P0DTD1)
MCF-7-GFP cells = assay: CLSM imaging of MCF-7-GFP cells (TMPRSS2 high expression); type: cell-based; conditions: 10 μM probe, 1 h
Procedure: (§2) TMPRSS2 selective imaging in cancer cells with EGTP.
(§3) Incubation living cells with probes.
(§4) Confocal laser scanning microscopy.

A549 cells = assay: CLSM imaging of A549 cells (TMPRSS2 low expression); type: cell-based; conditions: 10 μM probe, 1 h
Procedure: as §2, §3, §4

TMPRSS2 [7] = target: T1, TMPRSS2; assay: Cleavage of probes by recombinant TMPRSS2 (HPLC and ESI-MS); type: biochemical; conditions: incubation for 1 h at 37° C. in 20 mM Tris-HCl buffer (pH 8.0)
HeLa cells = type: cell-based
Procedure: as §1

TMPRSS2 [8] = target: T1, TMPRSS2; assay: Enzymatic fluorescence assay of probes with TMPRSS2; type: biochemical; set-up: expressed in transfected cells; host or cells: TMPRSS2-Vero cells; conditions: Tris-HCl buffer with 1% DMSO, excitation 405 nm
Procedure: Recombinant TMPRSS2 was added into the working solution and then diluted to a total of 100 μl with the same Tris-HCl buffer. The reaction mixture was incubated at 37° C. for 1 h for UV-Vis absorption and fluorescence measurement. The solution was excited at 405 nm, and the emission was collected from 430 nm to 800 nm.

TMPRSS2-Vero cells = type: cell-based
Procedure: as §5, §6, §7

Vero cells = assay: CLSM imaging of Vero cells; conditions: 1, 5, 10, 20 mM as printed, 1 h
[9] = 10 μM PSGMR, increasing GC376 (2-12 μM)

## CN(C)C(=O)COC(=O)Cc1ccc(OC(=O)c2ccc(NC(=N)N)cc2)cc1 [Camostat, camostat mesylate]
TMPRSS2 [1]; Camostat before adding EGTP
  effect of inhibitor on yellow fluorescence of EGTP: gradually decreased
TMPRSS2 [2]
  effect of inhibitor on fluorescence of EGTP with TMPRSS2 incubation: significantly reduced fluorescence of EGTP

## C#CC[C@H](NC(=O)CNC(=O)CNC(=O)[C@H](CCCNC(=N)N)NC(=O)[C@H](C)NC(=O)[C@H](CCC(N)=O)NC(=O)CNC(=O)CNC(=O)CNC(=O)[C@H](CCC(=O)O)NC(=O)[C@H](CCC(=O)O)NC(=O)[C@H](CCC(=O)O)NC(=O)[C@H](CCC(=O)O)NC(=O)[C@H](CCC(=O)O)NC(=O)[C@H](CCC(=O)O)NC(=O)[C@H](CCC(=O)O)NC(=O)[C@H](CCC(=O)O)NC(=O)[C@@H](N)CCC(=O)O)C(N)=O [EGT, EEEEEEEEEGGGQAR (SEQ ID NO:4)]
[3]; 1 μM to 20 μM, 48 h
  toxicity to cells: negligible toxicity

## CC(C)C[C@H](NC(=O)OCc1ccccc1)C(=O)N[C@@H](C[C@@H]1CCNC1=O)C(O)S(=O)(=O)[O-].[Na+] (some centres unmarked) [GC376]
[4]; 10 μM PSGMR and 2 μM, 6 μM, and 12 μM GC376
  red and yellow fluorescence with inhibitor: markedly decreased
[4]; [9]
  average red fluorescence intensity, decrease: 32.6 to 11.6 times
  average yellow fluorescence intensity, decrease: 5.8 to 3.6 times
TMPRSS2 [1]
  effect of inhibitor on fluorescence intensity of EGTP: no significant effect on the fluorescence intensity of EGTP

## Cc1ccc(N)cc1C(=O)N[C@H](C)c1cccc2ccccc12 [GRL0617]
TMPRSS2 [1]
  effect of inhibitor on fluorescence intensity of EGTP: no significant effect on the fluorescence intensity of EGTP

## (Pra)GSAVLQ/SGFRKMAGRRRRRR [PMR]
[5]
  cleavage by Mpro: can be cleaved by M^pro
[5]; pH 8
  cleavage by Mpro: can be cleaved by Mpro between Q and S
[6]
  killing / inhibition of infected cells: can also inhibit infected cells
[6]; 10 μM probe
  yellow and red fluorescence of infected cells: weaker than that of PSGMR
[6]; PSGMR versus PMR
  red and yellow fluorescence and cell morphology of infected cells: less than the infected cells with PSGMR
Recombinant Mpro
  aggregation and fluorescence on incubation with Mpro (time-dependent spectra): can easily aggregate with strong fluorescence
  fluorescence intensity after incubation with Mpro: weaker than that of PSGMR

## (Pra)KLVFFGSAVLQ/SGFRKMARRRRRR [PSMR]
[5]; pH 8
  cleavage by Mpro: not
Recombinant Mpro
  aggregation and fluorescence on incubation with Mpro (time-dependent spectra): cannot aggregate with weak fluorescence
  fluorescence intensity after incubation with Mpro: decreased upon incubation with Mpro

## AVLQFFVLKC [AVLQFFVLKC (SEQ ID NO:12)]
[5]
  cleavage by Mpro: not cleaved by Mpro

## CGAVLQDDD [CGAVLQDDD (SEQ ID NO: 11)]
[5]
  cleavage by Mpro: not cleaved by Mpro

## TGP: control probe without polyglutamic acid: peptide QARGG (SEQ ID NO:2) linked by Propargylglycine (Pra) to the dye PyTPE (also: linked by Pra to dye PyTPE, end not given here)
MCF-7-GFP cells
  yellow fluorescence in MCF-7-GFP cells: strong yellow fluorescence
A549 cells
  yellow fluorescence in A549 cells: strong yellow fluorescence
TMPRSS2 [7]
  cleavage by TMPRSS2: can be cleaved by TMPRSS2
HeLa cells; 10 μM probe, 1 h
  yellow fluorescence in HeLa cells: strong yellow fluorescence
TMPRSS2 [8]
  fluorescence intensity after incubation with TMPRSS2 (comparison of probes): stronger than that of EGTP and EGEP

## TetraPhenylEthene Pyridinium [PyTPE]
HEK 293T cells
  cytotoxicity (metabolic activity): obviously cytotoxic
  high concentration that caused significant cytotoxicity: 20 µM
TMPRSS2-Vero cells
  yellow fluorescence in TMPRSS2-Vero cells: enhanced with increasing concentrations
[3]
  concentration that can cause significant cytotoxicity: > 5 µM
  cytotoxicity (metabolic activity): obviously cytotoxic
Vero cells
  yellow fluorescence in Vero cells: enhanced with increasing concentrations
HeLa cells
  overlap of yellow fluorescence with Mito tracker green (MTG): overlapped well with the green fluorescence of MTG
